Source: PubChem BioAssay AID256 (DTP/NCI, 2004)
Where “and” joins values, the source holds several entries; their conditions need not be identical. Equal values may be shown once. Toxic doses and inconclusive results are not listed.

Test system: CD2F1 mice, L1210 leukemia ip, survival T/C
Assay: NCI In Vivo Anticancer Drug Screen. Data for tumor model L1210 Leukemia (intraperitoneal) in CD2F1 (CDF1) mice
Conditions: higher = longer survival
Outline: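 Antitumor effect is scored in animals hosting a serially transplanted tumor. Values compare compound-dosed animals against vehicle-only controls as a simple quotient.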

[1] = endpoint: mean survival time, dose: 75.0 mg/kg/injection, schedule: Q01DX001 (ip), vehicle: saline
[2] = endpoint: mean survival time, dose: 150.0 mg/kg/injection, schedule: Q01DX001 (ip), vehicle: saline
[3] = endpoint: mean survival time, dose: 300.0 mg/kg/injection, schedule: Q01DX001 (ip), vehicle: saline
[4] = endpoint: mean survival time, dose: 100.0 mg/kg/injection, schedule: Q04DX003 (ip), vehicle: saline with Tween-80
[5] = endpoint: mean survival time, dose: 200.0 mg/kg/injection, schedule: Q04DX003 (ip), vehicle: saline with Tween-80
[6] = endpoint: mean survival time, dose: 100.0 mg/kg/injection, schedule: Q04DX002 (ip), vehicle: saline with Tween-80
[7] = endpoint: mean survival time, dose: 200.0 mg/kg/injection, schedule: Q04DX002 (ip), vehicle: saline with Tween-80
[8] = endpoint: mean survival time, dose: 400.0 mg/kg/injection, schedule: Q04DX002 (ip), vehicle: saline with Tween-80

CCCCCCCCCCCCN1C(C)=CS/C1=C\C=C\c1scc(C)[n+]1CCCCCCCCCCCC
T/C (endpoint: mean survival time, dose: 0.78 mg/kg/injection, schedule: Q01DX009 (ip), vehicle: saline with Tween-80): 123 % of control

CC1=C(c2ccccc2)C(=O)OC1=O
T/C (endpoint: mean survival time, dose: 100.0 mg/kg/injection, schedule: Q04DX002 (ip), vehicle: other): 98 % of control | T/C (endpoint: mean survival time, dose: 200.0 mg/kg/injection, schedule: Q04DX002 (ip), vehicle: other): 103 % of control | T/C (endpoint: mean survival time, dose: 400.0 mg/kg/injection, schedule: Q04DX002 (ip), vehicle: other): 107 % of control

CCOC(=O)C(Cc1ccccc1OC)P(=O)(OCC)OCC (configuration not stated)
T/C [1]: 100 % of control | T/C [2]: 94 % of control | T/C [3]: 96 % of control

C[N+](C)(C)C(C1=CCCC1=O)c1ccccc1 (configuration not stated)
T/C [1]: 103 % of control | T/C [2]: 91 % of control | T/C [3]: 100 % of control

CNC(=O)Nc1ccccc1OS(=O)(=O)N(C)C
T/C [4]: 97 % of control | T/C [5]: 104 % of control | T/C (endpoint: mean survival time, dose: 400.0 mg/kg/injection, schedule: Q04DX003 (ip), vehicle: saline with Tween-80): 104 % of control

NC1C(O)C(O)C(O)C(O)C1O (configuration not stated)
T/C (endpoint: mean survival time, dose: 100.0 mg/kg/injection, schedule: Q01DX001 (ip), vehicle: saline): 98 % of control | T/C (endpoint: mean survival time, dose: 200.0 mg/kg/injection, schedule: Q01DX001 (ip), vehicle: saline): 98 % of control | T/C (endpoint: mean survival time, dose: 400.0 mg/kg/injection, schedule: Q01DX001 (ip), vehicle: saline): 98 % of control

COc1cc(CCN2CC3C(C(=O)O)C4C=CC3(C2)O4)ccc1OCc1ccccc1 (configuration not stated)
T/C [6]: 95 % of control | T/C [7]: 95 % of control | T/C [8]: 98 % of control

CCCCCCNc1nc(NCCCCCC)c2[nH]c(NCCCCCC)nc2n1
T/C (endpoint: median survival time, dose: 25.0 mg/kg/injection, schedule: Q01DX009 (ip), vehicle: saline with Tween-80): 107 % of control | T/C (endpoint: median survival time, dose: 50.0 mg/kg/injection, schedule: Q01DX009 (ip), vehicle: saline with Tween-80): 107 % of control | T/C (endpoint: median survival time, dose: 100.0 mg/kg/injection, schedule: Q01DX009 (ip), vehicle: saline with Tween-80): 106 % of control | T/C (endpoint: median survival time, dose: 200.0 mg/kg/injection, schedule: Q01DX009 (ip), vehicle: saline with Tween-80): 105 % of control

CNc1ccn(C2OC(CO)C(O)C2SC(C)(C)C)c(=O)n1 (configuration not stated)
T/C (endpoint: median survival time, dose: 12.5 mg/kg/injection, schedule: Q01DX005 (ip), vehicle: saline): 105 % of control | T/C (endpoint: median survival time, dose: 25.0 mg/kg/injection, schedule: Q01DX005 (ip), vehicle: saline): 105 % of control | T/C (endpoint: median survival time, dose: 50.0 mg/kg/injection, schedule: Q01DX005 (ip), vehicle: saline): 100 % of control | T/C (endpoint: median survival time, dose: 100.0 mg/kg/injection, schedule: Q01DX005 (ip), vehicle: saline): 102 % of control | T/C (endpoint: median survival time, dose: 200.0 mg/kg/injection, schedule: Q01DX005 (ip), vehicle: saline): 100 % of control

CC1(C)OC2C(CO)OC(NC3=C(C#N)CCCC3)C2O1 (configuration not stated)
T/C (endpoint: mean survival time, dose: 12.5 mg/kg/injection, schedule: Q01DX005 (ip), vehicle: other): 103 % of control | T/C (endpoint: mean survival time, dose: 25.0 mg/kg/injection, schedule: Q01DX005 (ip), vehicle: other): 105 % of control | T/C (endpoint: mean survival time, dose: 50.0 mg/kg/injection, schedule: Q01DX005 (ip), vehicle: other): 103 % of control | T/C (endpoint: mean survival time, dose: 100.0 mg/kg/injection, schedule: Q01DX005 (ip), vehicle: other): 97 % of control | T/C (endpoint: mean survival time, dose: 200.0 mg/kg/injection, schedule: Q01DX005 (ip), vehicle: other): 103 % of control

CCN1CCN(CC)C1c1ccccc1
T/C (endpoint: mean survival time, dose: 100.0 mg/kg/injection, schedule: Q01DX009 (ip), vehicle: saline with Tween-80): 103 % of control | T/C (endpoint: mean survival time, dose: 200.0 mg/kg/injection, schedule: Q01DX009 (ip), vehicle: saline with Tween-80): 98 % of control

[Cl][Pt+2][Cl].[NH-]CC1(C[NH-])CCCCC1
T/C (endpoint: mean survival time, dose: 25.0 mg/kg/injection, schedule: Q04DX003 (ip), vehicle: saline): 95 % of control

COc1nc(NC2OC(CO)C(O)C(O)C2O)c(C(C)=O)c(=O)n1C (configuration not stated)
T/C (endpoint: median survival time, dose: 12.5 mg/kg/injection, schedule: Q01DX005 (ip), vehicle: saline with Tween-80): 94 % of control | T/C (endpoint: median survival time, dose: 25.0 mg/kg/injection, schedule: Q01DX005 (ip), vehicle: saline with Tween-80): 98 % of control | T/C (endpoint: median survival time, dose: 50.0 mg/kg/injection, schedule: Q01DX005 (ip), vehicle: saline with Tween-80): 100 % of control | T/C (endpoint: median survival time, dose: 100.0 mg/kg/injection, schedule: Q01DX005 (ip), vehicle: saline with Tween-80): 97 % of control | T/C (endpoint: median survival time, dose: 200.0 mg/kg/injection, schedule: Q01DX005 (ip), vehicle: saline with Tween-80): 98 % of control

CC(=O)c1cccc(N=NN(C)C)c1
T/C (endpoint: mean survival time, dose: 46.0 mg/kg/injection, schedule: Q01DX009 (ip), vehicle: Klucel (hydroxypropylcellulose) (HPC)): 124 % of control | T/C (endpoint: mean survival time, dose: 69.0 mg/kg/injection, schedule: Q01DX009 (ip), vehicle: Klucel (hydroxypropylcellulose) (HPC)): 154 % of control | T/C (endpoint: mean survival time, dose: 158.0 mg/kg/injection, schedule: Q01DX009 (ip), vehicle: Klucel (hydroxypropylcellulose) (HPC)): 87 % of control and 107 % of control

COc1ccc(C2=CC(=O)N(C(C)C)C2=O)cc1
T/C (endpoint: mean survival time, dose: 25.0 mg/kg/injection, schedule: Q04DX003 (ip), vehicle: saline with Tween-80): 116 % of control | T/C (endpoint: mean survival time, dose: 50.0 mg/kg/injection, schedule: Q04DX003 (ip), vehicle: saline with Tween-80): 93 % of control | T/C [4]: 98 % of control | T/C [5]: 108 % of control

CN1CCCCCC1
T/C [4]: 100 % of control | T/C [5]: 111 % of control

CC(C)(C)c1cc(C(C)(C)C)nc([N+](C)(C)C)c1
T/C (endpoint: mean survival time, dose: 12.5 mg/kg/injection, schedule: Q04DX002 (ip), vehicle: saline with Tween-80): 108 % of control | T/C (endpoint: mean survival time, dose: 25.0 mg/kg/injection, schedule: Q04DX002 (ip), vehicle: saline with Tween-80): 101 % of control | T/C (endpoint: mean survival time, dose: 50.0 mg/kg/injection, schedule: Q04DX002 (ip), vehicle: saline with Tween-80): 101 % of control

CC(=O)O/C=C1\CC2C3CC=C4CC(OC(C)=O)CCC4(C)C3CCC2(C)C1=O (configuration not stated)
T/C (endpoint: mean survival time, dose: 25.0 mg/kg/injection, schedule: Q01DX001 (ip), vehicle: saline with Tween-80): 100 % of control | T/C (endpoint: mean survival time, dose: 50.0 mg/kg/injection, schedule: Q01DX001 (ip), vehicle: saline with Tween-80): 95 % of control | T/C (endpoint: mean survival time, dose: 100.0 mg/kg/injection, schedule: Q01DX001 (ip), vehicle: saline with Tween-80): 95 % of control

CCOCCNc1ccc([N+](=O)[O-])cc1[N+](=O)[O-]
T/C [6]: 91 % of control | T/C [7]: 91 % of control | T/C [8]: 98 % of control

CCOC(=O)c1c[nH]n(C2OC(CO)C(O)C2O)c1=O (configuration not stated)
T/C (endpoint: median survival time, dose: 45.5 mg/kg/injection, schedule: Q01DX005 (ip), vehicle: saline): 96 % of control | T/C (endpoint: median survival time, dose: 90.9 mg/kg/injection, schedule: Q01DX005 (ip), vehicle: saline): 96 % of control | T/C (endpoint: median survival time, dose: 181.9 mg/kg/injection, schedule: Q01DX005 (ip), vehicle: saline): 98 % of control

CCCCc1ccc(-n2c(C)c(COC(=O)NC)c(COC(=O)NC)c2C)cc1
T/C (endpoint: mean survival time, dose: 1.56 mg/kg/injection, schedule: Q01DX009 (ip), vehicle: Klucel (hydroxypropylcellulose) (HPC)): 113 % of control and 112 % of control | T/C (endpoint: mean survival time, dose: 3.12 mg/kg/injection, schedule: Q01DX009 (ip), vehicle: Klucel (hydroxypropylcellulose) (HPC)): 117 % of control and 110 % of control | T/C (endpoint: mean survival time, dose: 6.25 mg/kg/injection, schedule: Q01DX009 (ip), vehicle: Klucel (hydroxypropylcellulose) (HPC)): 117 % of control and 110 % of control | T/C (endpoint: mean survival time, dose: 12.5 mg/kg/injection, schedule: Q01DX009 (ip), vehicle: Klucel (hydroxypropylcellulose) (HPC)): 124 % of control and 103 % of control | T/C (endpoint: mean survival time, dose: 25.0 mg/kg/injection, schedule: Q01DX009 (ip), vehicle: Klucel (hydroxypropylcellulose) (HPC)): 120 % of control | T/C (endpoint: mean survival time, dose: 50.0 mg/kg/injection, schedule: Q01DX009 (ip), vehicle: Klucel (hydroxypropylcellulose) (HPC)): 122 % of control and 109 % of control

CCCCCCCCCCCCCC[n+]1ccccc1
T/C (endpoint: mean survival time, dose: 0.07 mg/kg/injection, schedule: Q01DX009 (ip), vehicle: saline): 93 % of control | T/C (endpoint: mean survival time, dose: 0.13 mg/kg/injection, schedule: Q01DX009 (ip), vehicle: saline): 101 % of control | T/C (endpoint: mean survival time, dose: 0.25 mg/kg/injection, schedule: Q01DX009 (ip), vehicle: saline): 103 % of control | T/C (endpoint: mean survival time, dose: 0.25 mg/kg/injection, schedule: Q04DX003 (ip), vehicle: saline sonified): 102 % of control
